From ChEMBL document CHEMBL5032491, “New Dibenzoquinoxalines Inhibit Triple-Negative Breast Cancer Growth by Dual Targeting of Topoisomerase 1 and the c-MYC G-Quadruplex” (J Med Chem, 2021)
pIC50: −log10 of the molar value. Calls of active or inactive are those of the source. The rule behind the calls is not given here.

Legend:
[1] = tested on: Quadruplex DNA; assay: Inhibition of c-myc G4-quadruplex DNA transcriptional activity in human MDA-MB-231 cells incubated for 24 hrs by RT-PCR analysis; type: cell-based
[2] = target: T1, DNA topoisomerase 1 (Homo sapiens) (UniProt P11387); assay: Inhibition of human topoisomerase 1 mediated relaxation of supercoiled pHOT1 DNA at 5 to 20 uM incubated for 30 mins by agarose gel electrophoresis; conditions: dose 5-20 µM
T1 sequence (whole entry): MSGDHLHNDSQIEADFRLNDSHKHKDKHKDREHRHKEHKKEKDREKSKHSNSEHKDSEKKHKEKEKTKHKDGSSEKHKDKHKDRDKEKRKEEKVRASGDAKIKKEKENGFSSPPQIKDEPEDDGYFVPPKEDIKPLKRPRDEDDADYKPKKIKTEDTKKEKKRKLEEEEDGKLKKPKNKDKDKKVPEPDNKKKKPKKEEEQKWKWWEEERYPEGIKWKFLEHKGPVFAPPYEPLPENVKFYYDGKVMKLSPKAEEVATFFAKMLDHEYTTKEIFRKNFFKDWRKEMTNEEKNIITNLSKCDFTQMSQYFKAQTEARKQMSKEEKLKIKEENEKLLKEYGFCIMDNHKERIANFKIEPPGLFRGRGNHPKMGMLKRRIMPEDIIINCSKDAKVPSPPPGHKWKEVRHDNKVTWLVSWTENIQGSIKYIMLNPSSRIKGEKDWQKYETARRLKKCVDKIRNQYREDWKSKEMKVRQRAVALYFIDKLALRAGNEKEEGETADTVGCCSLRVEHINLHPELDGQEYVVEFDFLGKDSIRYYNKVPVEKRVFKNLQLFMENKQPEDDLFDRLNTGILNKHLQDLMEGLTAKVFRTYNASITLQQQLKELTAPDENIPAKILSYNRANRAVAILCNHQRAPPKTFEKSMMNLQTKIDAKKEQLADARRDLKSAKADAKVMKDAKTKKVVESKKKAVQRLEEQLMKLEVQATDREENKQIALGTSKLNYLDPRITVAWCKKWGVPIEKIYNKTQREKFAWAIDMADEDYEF

[3] = tested on: MDA-MB-231; assay: Antiproliferative activity against human MDA-MB-231 cells assessed as inhibition of cell growth incubated for 24 hrs by CCK8 assay; type: functional, cell-based; conditions: MDA-MB-231, 24 h
[4] = tested on: MDA-MB-231; assay: Antiproliferative activity against human MDA-MB-231 cells assessed as inhibition in cell growth at 20 uM incubated for 24 hrs by CCK8 assay; type: functional, cell-based
[5] = Toxicity in human MDA-MB-231 cells xenografted BALB/c mouse assessed as body weight loss at 2.5 mg/kg, ip administered every other day for 20 days; type: organism-based; conditions: in vivo, 480 h, time 20 day
[6] = tested on: MDA-MB-231; assay: Antitumor activity against human MDA-MB-231 cells xenografted in BALB/c mouse assessed as tumor growth inhibition measured at 2.5 mg/kg, ip administered every other day for 20 days; type: functional; conditions: time 20.0 day

| Compound | inhibition [1] | inhibition [2] | pIC50 [3] | Activity [4] | Activity [5] | Activity [6] |
| --- | --- | --- | --- | --- | --- | --- |
| CC1CCN(c2cc3nc4c5ccc(N6CCN(C)CC6)cc5c5cc(N6CCN(C)CC6)ccc5c4nc3cc2F)CC1 | inactive | inactive | 5.01 | – | – | – |
| CN1CCN(c2ccc3c(c2)c2cc(N4CCN(C)CC4)ccc2c2nc4cnccc4nc32)CC1 | inactive | Active | 4.76 | – | – | – |
| CN1CCN(c2ccc3c(c2)c2cc(N4CCN(C)CC4)ccc2c2nc4cc5ccccc5cc4nc32)CC1 | – | – | 5.27 | – | – | – |
| CN1CCN(c2ccc3c(c2)c2cc(N4CCN(C)CC4)ccc2c2nc4cc(F)c(F)cc4nc32)CC1 | – | Active | 5.68 | – | – | – |
| COc1cc2nc3c4ccc(N5CCN(C)CC5)cc4c4cc(N5CCN(C)CC5)ccc4c3nc2cc1OC | inactive | inactive | 4.77 | – | – | – |
| CN1CCN(c2ccc3c(c2)c2cc(N4CCN(C)CC4)ccc2c2nc4cc(F)ccc4nc32)CC1 | Active | Active | 5.96 | – | – | – |
| Cc1cc2nc3c4ccc(N5CCN(C)CC5)cc4c4cc(N5CCN(C)CC5)ccc4c3nc2cc1C | Active | Active | 5.57 | – | – | – |
| COc1cccc2c1C(=O)c1c(O)c3c(c(O)c1C2=O)C[C@@](O)(C(=O)CO)C[C@@H]3O[C@H]1C[C@H](N)[C@H](O)[C@H](C)O1 [DOXORUBICIN] | – | – | – | Active | Toxic | Dose-Dependent Effect |
